Biological target: T1, HDM2 (Homo sapiens, UniProt Q00987)
T1 construct: Recombinant HDM2 (1.5 μg per well) in TBS-BSA buffer
Test: Fluorescence polarisation competitive HDM2 binding assay
Details: fluorescence polarisation format; Table 1; read-out: IC50 In vitro competitive HDM2 binding assay
Procedure: This was carried out using a 96-well microtiter plate (Costar) format. Recombinant HDM2 (1.5 μg per well) in TBS-BSA buffer (50 mM Tris pH 7.4, 150 mM NaCl, and 0.1% BSA) was incubated for 5 min at room temperature in the presence of serially diluted test compound (in TBS-BSA buffer with a final concentration of 5% DMSO). Fluorescently labelled p53-derived peptide (fluorescein-[…]NH2, 0.2 μM) was added to each well and the plate was incubated at room temperature for 45 min. The fluorescence polarisation (excitation 485 nm, emission 520 nm) of the peptide was measured. IC50 values were calculated from dose-response curves.
The fluorescence polarisation competitive HDM2 binding assay described in Example 3 was used. Furthermore, the anti-proliferative potency of the compounds against three human tumour cell lines with different genetic make-up was also determined. […] The cell lines used were as follows: AGS, gastric adenocarcinoma, wild-type p53; H1299, large cell lung carcinoma, p53 null, low HDM2; SJSA-1, primitive multipotential bone sarcoma, wild-type p53, overexpressed HDM2.

T1 sequence (Q00987 whole entry): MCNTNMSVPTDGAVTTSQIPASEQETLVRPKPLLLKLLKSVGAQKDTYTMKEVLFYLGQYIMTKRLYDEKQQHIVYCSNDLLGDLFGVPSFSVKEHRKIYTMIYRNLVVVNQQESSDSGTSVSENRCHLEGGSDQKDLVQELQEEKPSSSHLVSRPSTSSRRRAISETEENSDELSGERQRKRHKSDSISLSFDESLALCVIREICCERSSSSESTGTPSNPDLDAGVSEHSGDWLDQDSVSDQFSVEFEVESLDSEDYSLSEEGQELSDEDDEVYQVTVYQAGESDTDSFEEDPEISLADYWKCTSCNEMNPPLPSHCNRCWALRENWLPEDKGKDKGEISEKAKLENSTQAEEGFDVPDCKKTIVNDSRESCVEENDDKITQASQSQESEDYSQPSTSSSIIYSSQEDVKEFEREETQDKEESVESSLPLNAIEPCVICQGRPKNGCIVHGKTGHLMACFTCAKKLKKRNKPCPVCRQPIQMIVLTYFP

Structure (SMILES)	IC50 [µM]
O=S(=O)(Nc1cc(C(F)(F)F)cc(C(F)(F)F)c1)c1ccc2c(c1)OCCO2 [Compound 86, 2,3-Dihydro-benzo[1,4]dioxine-6-sulfonic acid (3,5-bis-trifluoromethyl-phenyl)-amide]	375 ± 39
O=S(=O)(Nc1ccc(Cl)cc1)c1ccc(Oc2ccccc2)nc1 [Compound 87, 6-Phenoxy-pyridine-3-sulfonic acid (4-chloro-phenyl)-amide]	212 ± 27
Cc1c(S(=O)(=O)Nc2ccc(Cl)c([N+](=O)[O-])c2)sc2ccc(Cl)cc12 [Compound 88, 5-Chloro-3-methyl-benzo[b]thiophene-2-sulfonic acid (4-chloro-3-nitro-phenyl)-amide]	174 ± 11
O=S(=O)(Nc1cc(C(F)(F)F)cc(C(F)(F)F)c1)c1ccc(-n2cccn2)cc1 [Compound 89, N-(3,5-Bis-trifluoromethyl-phenyl)-4-pyrazol-1-yl-benzenesulfonamide]	275 ± 45
CCOC(=O)c1[nH]c(C)c(S(=O)(=O)Nc2ccc(Cl)cc2)c1C [Compound 90, 4-(4-Chloro-phenylsulfamoyl)-3,5-dimethyl-1H-pyrrole-2-carboxylic acid ethyl ester]	331 ± 52
Cc1[nH]c(C(=O)O)c(C)c1S(=O)(=O)Nc1cc(C(F)(F)F)cc(C(F)(F)F)c1 [Compound 91, 4-(3,5-Bis-trifluoromethyl-phenylsulfamoyl)-3,5-dimethyl-1H-pyrrole-2-carboxylic acid]	481
Cc1[nH]c(C(=O)O)c(C)c1S(=O)(=O)Nc1ccc(Cl)cc1 [Compound 92, 4-(4-Chloro-phenylsulfamoyl)-3,5-dimethyl-1H-pyrrole-2-carboxylic acid]	418
CCOC(=O)c1sc(S(=O)(=O)Nc2ccc(Cl)cc2)nc1C [Compound 93, 2-(4-Chloro-phenylsulfamoyl)-4-methyl-thiazole-5-carboxylic acid ethyl ester]	373 ± 373
O=S(=O)(Nc1ccc(Cl)cc1)c1cc(Cl)c(O)c(Cl)c1 [Compound 94, 3,5-Dichloro-N-(4-chloro-phenyl)-4-hydroxy-benzenesulfonamide]	227 ± 7
O=S(=O)(Nc1cc(C(F)(F)F)cc(C(F)(F)F)c1)c1cc(Cl)c(O)c(Cl)c1 [Compound 95, N-(3,5-Bis-trifluoromethyl-phenyl)-3,5-dichloro-4-hydroxy-benzenesulfonamide]	243 ± 11
O=S(=O)(Nc1ccc(C(F)(F)F)cc1)c1cc(Cl)c(O)c(Cl)c1 [Compound 96, 3,5-Dichloro-4-hydroxy-N-(4-trifluoromethyl-phenyl)-benzenesulfonamide]	449 ± 51
O=[N+]([O-])c1ccc(S(=O)(=O)Nc2ccc(Cl)cc2)cc1 [Compound 97, N-(4-Chloro-phenyl)-4-nitro-benzene-sulfonamide]	394 ± 13
O=[N+]([O-])c1ccc(S(=O)(=O)Nc2cc(C(F)(F)F)cc(C(F)(F)F)c2)cc1 [Compound 98, N-(3,5-Bis-trifluoromethyl-phenyl)-4-nitro-benzenesulfonamide]	207
Nc1ccc(S(=O)(=O)Nc2cc(C(F)(F)F)cc(C(F)(F)F)c2)cc1Cl [Compound 99, 4-Amino-N-(3,5-bis-trifluoromethyl-phenyl)-3-chloro-benzenesulfonamide]	248 ± 29
O=[N+]([O-])c1cccc(S(=O)(=O)Nc2ccc(C(F)(F)F)cc2)c1 [Compound 100, 3-Nitro-N-(4-trifluoromethyl-phenyl)-benzenesulfonamide]	431 ± 5
O=S(=O)(Nc1cc(Cl)cc(Cl)c1)c1cc(Cl)c(O)c(Cl)c1 [Compound 101, 3,5-Dichloro-N-(3,5-dichloro-phenyl)-4-hydroxy-benzenesulfonamide]	299 ± 31
Nc1ccc(S(=O)(=O)Nc2ccc(Cl)cc2)cc1Cl [Compound 102, 4-Amino-3-chloro-N-(4-chloro-phenyl)-benzenesulfonamide]	467 ± 35
COc1ccc(S(=O)(=O)Nc2ccc(Cl)cc2)cc1Cl [Compound 103, 3-Chloro-N-(4-chloro-phenyl)-4-methoxy-benzenesulfonamide]	408 ± 18

Reference: patent publication US20050215548A1 (Cyclacel Limited, priority 2002, published 2005)
